# Molecular target: T1, Mushroom tyrosinase (Agaricus bisporus, UniProt O42713+Q00024+C7FF04+C7FF05)
# Experiment: Competitive inhibition of mushroom tyrosinase using […] as substrate by Lineweaver-Burk plot analysis
# Conditions: not given
row,Ki,Structure (SMILES)
1,0.67 µM,CCn1c(Oc2ccc(/C=N/NC(N)=S)cc2)nc2c1c(=O)n(C)c(=O)n2C

# Molecular target: Mushroom tyrosinase (Agaricus bisporus) (UniProt O42713+Q00024+C7FF04+C7FF05)
# Conditions: dose 50.0 µM
# Description: Inhibition of mushroom tyrosinase using PNP-G as substrate at 50 nM relative to control
row,inhibition,Structure (SMILES)
1,33.6%,CCn1c(Oc2ccc(-c3nnc(NC(C)=O)s3)cc2)nc2c1c(=O)n(C)c(=O)n2C
2,> 40%,CCn1c(Oc2ccc(/C=N/NC(N)=S)cc2)nc2c1c(=O)n(C)c(=O)n2C
3,40.3%,CCn1c(Oc2ccc(/C=N\NC(=O)c3cccnc3)cc2)nc2c1c(=O)n(C)c(=O)n2C
4,> 40%,CCn1c(Oc2ccc(/C=N/Nc3ccccn3)cc2)nc2c1c(=O)n(C)c(=O)n2C
5,29.4%,CCn1c(Oc2ccc(/C=N/N=C3/NC(=O)CS3)cc2)nc2c1c(=O)n(C)c(=O)n2C
6,27%,CCn1c(N/N=C/c2nc3ccccc3[nH]2)nc2c1c(=O)n(C)c(=O)n2C
7,> 40%,CCn1c(Oc2ccc(C3C4=C(CC(C)(C)CC4=O)NC4=C3C(=O)CC(C)(C)C4)cc2)nc2c1c(=O)n(C)c(=O)n2C
8,> 40%,CCn1c(Oc2ccc(-c3nc(-c4ccccc4)c(-c4ccccc4)[nH]3)cc2)nc2c1c(=O)n(C)c(=O)n2C
9,> 40%,CCn1c(NN)nc2c1c(=O)n(C)c(=O)n2C
10,30.2%,CCn1c(Oc2ccc(C=C3C(=O)NC(=S)NC3=O)cc2)nc2c1c(=O)n(C)c(=O)n2C
11,> 40%,CCn1c(Oc2ccc(/C=N/N)cc2)nc2c1c(=O)n(C)c(=O)n2C
12,> 40%,CCn1c(Oc2ccc(C=C(C#N)C#N)cc2)nc2c1c(=O)n(C)c(=O)n2C
13,29.5%,CCn1c(Oc2ccc(C=O)cc2)nc2c1c(=O)n(C)c(=O)n2C
14,> 40%,CCn1c(Oc2ccc(/C=N\Nc3c(F)c(F)c(F)c(F)c3F)cc2)nc2c1c(=O)n(C)c(=O)n2C
15,> 40%,CCn1c(Oc2ccc(/C=N/N=C3/C(=O)Nc4ccccc43)cc2)nc2c1c(=O)n(C)c(=O)n2C
16,32.7%,CCn1c(Oc2ccc(C3C(C#N)=C(N)Oc4[nH]c(=S)[nH]c(=O)c43)cc2)nc2c1c(=O)n(C)c(=O)n2C (stereo not drawn)

# Molecular target: T1, Mushroom tyrosinase
# Experiment: Inhibition of mushroom tyrosinase using […] as substrate
# Conditions: not given
row,Ki,Structure (SMILES)
1,0.67 µM,CCn1c(Oc2ccc(/C=N/NC(N)=S)cc2)nc2c1c(=O)n(C)c(=O)n2C

# — ChEMBL document CHEMBL4732166, “Thiosemicarbazide binds with the dicopper center in the competitive inhibition of mushroom tyrosinase enzyme: Synthesis and molecular modeling of theophylline analogues” (Bioorg Med Chem Lett, 2021)
